Patent US12448377B2, “Heterocyclic compound” (Takeda Pharmaceutical Company Limited, priority 2019, dated 2025)

Each compound was assayed against T1, human orexin type 2 receptor (Homo sapiens, UniProt O43614) (assay: Measurement of orexin type 2 receptor agonist activity (calcium fluorescence, CHO cells forcibly expressing human OX2 receptor)). Conditions: compound at 3 μM, DMSO = 0%, orexin A (human) 10 nM = 100%.
T1 construct: expressed in transfected cells
T1 sequence (O43614 1-444): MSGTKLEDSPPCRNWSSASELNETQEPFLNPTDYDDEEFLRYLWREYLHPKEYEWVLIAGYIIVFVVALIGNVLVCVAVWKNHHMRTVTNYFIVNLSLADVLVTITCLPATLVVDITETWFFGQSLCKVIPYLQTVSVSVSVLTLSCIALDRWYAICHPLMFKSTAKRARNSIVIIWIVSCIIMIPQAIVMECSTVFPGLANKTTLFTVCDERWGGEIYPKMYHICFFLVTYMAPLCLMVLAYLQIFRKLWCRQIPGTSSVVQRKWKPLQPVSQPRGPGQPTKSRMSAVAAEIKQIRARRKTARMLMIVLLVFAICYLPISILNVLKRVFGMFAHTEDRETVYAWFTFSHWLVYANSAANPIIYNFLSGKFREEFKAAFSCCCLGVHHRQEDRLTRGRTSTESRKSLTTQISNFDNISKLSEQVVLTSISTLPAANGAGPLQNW
Type: cell-based
How it was run: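 Agonism measured as Fluo-4 calcium fluorescence in CHO-K1 cells stably expressing human OX2 receptor, loaded 30 min at 37° C then 30 min at room temperature with probenecid. Signal recorded about 2 min 40 sec after compound; activity (%) normalised to DMSO (0%) and 10 nM human orexin A (100%).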

SMILES | OX2R agonist activity (3 μM, %)
Cc1ccccc1C1CCC(OCC2C(NS(C)(=O)=O)CCc3ccc(C)c(=O)n32)CC1 (racemic) [Example 19, rac-N-[(3S,4R)-7-methyl-4-({[(1s,4S)-4-(2-methylphenyl)cyclohexyl]oxy}methyl)-6-oxo-1,3,4,6-tetrahydro-2H-quinolizin-3-yl]methanesulfonamide] | 89%
CC#CC1CCC(OCC2C(NS(=O)(=O)N(C)C)CCc3ccc(C)c(=O)n32)CC1 [Example 144, rel-N,N-dimethyl-N′-[(3S,4R)-7-methyl-6-oxo-4-({[(1s,4S)-4-(prop-1-yn-1-yl)cyclohexyl]oxy}methyl)-1,3,4,6-tetrahydro-2H-quinolizin-3-yl]sulfuric diamide] | 99%
Cc1ccc2n(c1=O)C(COC1CCC(C(C)(C)C)CC1)C(NS(=O)(=O)C1CC1)CC2 (racemic) [Example 24, rac-N-[(3S,4R)-4-({[(1s,4S)-4-tert-butylcyclohexyl]oxy}methyl)-7-methyl-6-oxo-1,3,4,6-tetrahydro-2H-quinolizin-3-yl]cyclopropanesulfonamide] | 86%
CCS(=O)(=O)NC1CCc2ccc(C)c(=O)n2C1COC1CCC(C(F)(F)F)CC1 (racemic) [Example 38, rac-N-[(3S,4R)-7-methyl-6-oxo-4-({[(1s,4S)-4-(trifluoromethyl)cyclohexyl]oxy}methyl)-1,3,4,6-tetrahydro-2H-quinolizin-3-yl]ethanesulfonamide] | 88%
Cc1ccc(C2CCC(OCC3C(NS(=O)(=O)C4CC4)CCc4ccc(C)c(=O)n43)CC2)cc1 (racemic) [Example 36, rac-N-[(3S,4R)-7-methyl-4-({[(1s,4S)-4-(4-methylphenyl)cyclohexyl]oxy}methyl)-6-oxo-1,3,4,6-tetrahydro-2H-quinolizin-3-yl]cyclopropanesulfonamide] | 84%
Cc1ccc(C2CCC(OCC3C(NS(C)(=O)=O)CCc4ccc(C)c(=O)n43)CC2)cc1 (racemic) [Example 33, rac-N-[(3S,4R)-7-methyl-4-({[(1s,4S)-4-(4-methylphenyl)cyclohexyl]oxy}methyl)-6-oxo-1,3,4,6-tetrahydro-2H-quinolizin-3-yl]methanesulfonamide] | 78%
CCc1ccc2n(c1=O)C(COC1CCC(C)CC1)C(NS(C)(=O)=O)CC2 (racemic) [Example 2, rac-N-[(3S,4R)-7-ethyl-4-({[(1s,4S)-4-methylcyclohexyl]oxy}methyl)-6-oxo-1,3,4,6-tetrahydro-2H-quinolizin-3-yl]methanesulfonamide] | 94%
CCC1CCC(OCC2C(NS(=O)(=O)N(C)C)CCc3ccc(C)c(=O)n32)CC1 (racemic) [Example 27, rac-N′-[(3S,4R)-4-({[(1s,4S)-4-ethylcyclohexyl]oxy}methyl)-7-methyl-6-oxo-1,3,4,6-tetrahydro-2H-quinolizin-3-yl]-N,N-dimethylsulfuric diamide] | 85%
CCS(=O)(=O)NC1CCc2ccc(C)c(=O)n2C1COC1CCC(c2cccc(C)c2)CC1 (racemic) [Example 22, rac-N-[(3S,4R)-7-methyl-4-({[(1s,4S)-4-(3-methylphenyl)cyclohexyl]oxy}methyl)-6-oxo-1,3,4,6-tetrahydro-2H-quinolizin-3-yl]ethanesulfonamide] | 83%
Cc1ccc2n(c1=O)C(COC1CCC(C)CC1)C(NS(C)(=O)=O)CC2 [Example 1, rel-N-[(3S,4R)-7-methyl-4-({[(1s,4S)-4-methylcyclohexyl]oxy}methyl)-6-oxo-1,3,4,6-tetrahydro-2H-quinolizin-3-yl]methanesulfonamide] | 96%
Cc1ccc2n(c1=O)C(COC1CCC(C(F)F)CC1)C(NS(C)(=O)=O)CC2 (racemic) [Example 55, N-[(3SR,4RS)-4-({[4-(difluoromethyl)cyclohexyl]oxy}methyl)-7-methyl-6-oxo-1,3,4,6-tetrahydro-2H-quinolizin-3-yl]methanesulfonamide] | 88%
Cc1ccc2n(c1=O)C(COC1CCC(C)CC1)C(NS(=O)(=O)C1CC1)CC2 (racemic) [Example 8, rac-N-[(3S,4R)-7-methyl-4-({[(1s,4S)-4-methylcyclohexyl]oxy}methyl)-6-oxo-1,3,4,6-tetrahydro-2H-quinolizin-3-yl]cyclopropanesulfonamide] | 80%
CCS(=O)(=O)NC1CCc2ccc(C)c(=O)n2C1COC1CCC(c2ccc(C)cc2)CC1 (racemic) [Example 34, rac-N-[(3S,4R)-7-methyl-4-({[(1s,4S)-4-(4-methylphenyl)cyclohexyl]oxy}methyl)-6-oxo-1,3,4,6-tetrahydro-2H-quinolizin-3-yl]ethanesulfonamide] | 78%
CC1CCC(OCC2C(NS(C)(=O)=O)CCc3cccc(=O)n32)CC1 (racemic) [Example 3, rac-N-[(3S,4R)-4-({[(1s,4S)-4-methylcyclohexyl]oxy}methyl)-6-oxo-1,3,4,6-tetrahydro-2H-quinolizin-3-yl]methanesulfonamide] | 89%
COC(C)(C)C1CCC(OCC2C(NS(C)(=O)=O)CCc3ccc(C)c(=O)n32)CC1 (racemic) [Example 74, rac-N-[(3S,4R)-4-(([(1s,4S)-4-(2-methoxypropan-2-yl)cyclohexyl]oxy)methyl)-7-methyl-6-oxo-1,3,4,6-tetrahydro-2H-quinolizin-3-yl]methanesulfonamide] | 95%
CCS(=O)(=O)NC1CCc2ccc(C)c(=O)n2C1COC1CCC(C(C)(C)C)CC1 (racemic) [Example 18, rac-N-[(3S,4R)-4-({[(1s,4S)-4-tert-butylcyclohexyl]oxy}methyl)-7-methyl-6-oxo-1,3,4,6-tetrahydro-2H-quinolizin-3-yl]ethanesulfonamide] | 96%
COC(C)C1CCC(OCC2C(NS(C)(=O)=O)CCc3ccc(C)c(=O)n32)CC1 (racemic) [Example 56, N-[(3SR,4RS)-4-({[(1s,4S)-4-(1-methoxyethyl)cyclohexyl]oxy}methyl)-7-methyl-6-oxo-1,3,4,6-tetrahydro-2H-quinolizin-3-yl]methanesulfonamide] | 84%
CCOC(=O)CC1CCC(OCC2C(NS(C)(=O)=O)CCc3ccc(C)c(=O)n32)CC1 (racemic) [Example 84, rac-ethyl [(1S,4s)-4-({(3S,4R)-3-[(methanesulfonyl)amino]-7-methyl-6-oxo-1,3,4,6-tetrahydro-2H-quinolizin-4-yl}methoxy)cyclohexyl]acetate] | 75%
C#CC1CCC(OCC2C(NS(C)(=O)=O)CCc3ccc(C)c(=O)n32)CC1 (racemic) [Example 108, rac-N-[(3S,4R)-4-({[(1s,4S)-4-ethynylcyclohexyl]oxy}methyl)-7-methyl-6-oxo-1,3,4,6-tetrahydro-2H-quinolizin-3-yl]methanesulfonamide] | 101%
Cc1ccc2n(c1=O)C(COC1CCC(C(C)C)CC1)C(NS(C)(=O)=O)CC2 (racemic) [Example 12, rac-N-[(3S,4R)-7-methyl-6-oxo-4-({[(1s,4S)-4-(propan-2-yl)cyclohexyl]oxy}methyl)-1,3,4,6-tetrahydro-2H-quinolizin-3-yl] methanesulfonamide] | 96%
